From publication PMC7032632 (Experimental eye research, 2019)
Ends that are not written are not given here.

Tests used:
[1] = test system: choroidal neovascularization (CNV); conditions: mouse, day 0 IVT injection; ref Wang et al., 2012; cited from earlier work
[2] = test system: VEGF-activated endothelial cells (primary human dermal microvascular EC); format: cell-based; conditions: 48 h
cells presenting 67LR = conditions: ref Gopalakrishna et al., 2018; Yu et al., 2009; cited from earlier work

| Substance | EC50 [2] [nM] | also measured |
| --- | --- | --- |
| Ac-GV-d-alloIle-Ser-Q-I-R-Pro-ethylamide [ABT-898] | – | laser-induced CNV, IVT injection [1]: mitigate laser-induced CNV |
| Ac-GYDLYRV-NH2 [PEDF 862] | 30 | – |
| Ac-GYDLYRVRS-NH2 [PEDF 860] | 60 | – |
| NFGYDLYRVRSSMSPTTN [PEDF P18] | 10 | – |
| YIGSR | – | activity range in cells presenting 67LR (cells presenting 67LR): 2 to 20 µM |
